Reference: patent US12600696B2 (XENIOPRO GMBH, priority 2017, dated 2026)

What was measured:
[1] = test system: HL-60 cells (human acute myeloid leukemia cells); assay: alamarBlue proliferation assay with HL-60 cells; format: cell-based; conditions: 120 h, 5 days, relative to DMSO baseline level of 1.0, read-out: AVEw, weighted arithmetic mean of normalized fluorescence intensity values (Activity Range), HL-60 proliferation
Description: The antiproliferative activities of compounds falling under formula I, formula II, formula III, formula IV and formula V were investigated on cells or cell lines originating from a disorder of the myeloid cell compartment, the neuroendocrine system, the cervix, and the mucosal epithelium, as well as from the skin epithelium. To this end, HL-60 cells, TT cells, HeLa cells, CAL-27 cells and human primary epidermal keratinocytes (HPEK) were seeded into 96-well plates suitable for fluorescence assays (CORNING #3598) at following initial cell numbers: 1000 cells per well for HL-60; 9000 cells per well for TT; 2000 cells per well for HeLa, 2000 cells per well for CAL-27, 2000 cells per well for HPEK. The cells were treated with compounds at indicated final concentrations (diluted from the 1000× stock-solutions in DMSO to a final DMSO concentration of 0.1% v/v) or with the empty carrier DMSO at 0.1% v/v as control for 5 days. At day 5 after starting the treatments the cells were subjected to the alamarBlue® Proliferation Assay (Bio-Rad Serotec GmbH, BUF012B) according to the protocol of the manufacturer. The readout was taken with a multi-well plate-reader in the fluorescence mode with applying a filter for excitation at 560 nm (band width 10 nm) and for emission at 590 nm (band width 10 nm). Resveratrol (RES) treatment was included as control for growth inhibition.
The assays were performed in duplicate or more replicates of independent single experiments each containing a six-fold replicate for every condition. For every individual plate, the measured fluorescence intensity values of the conditions with compound treatment were normalized against the corresponding equally weighted arithmetic mean of the fluorescence intensity values of the six DMSO treated control wells in order to obtain the relative values to a baseline level of 1.0. The statistical calculations were performed in analogy to the luciferase assay as described above. To this end, two independent outlier analyses were performed according to the methods by Peirce and Chauvenet (Ross, Journal of Engineering Technology 2003, 1-12). Outliers confirmed by at least one of the methods were excluded from the calculations but not more than one value out of six per compound within a single experiment. The weighted arithmetic mean AVEw for each compound was calculated from the normalized values over all independent replicates of the single experiments comprising the six replicates each. The corresponding standard deviation for the weighted arithmetic mean was calculated according to the method described by Bronstein et al. (Bronstein, Semendjajew, Musiol, Mühlig, Taschenbuch der Mathematik, 5th edition 2001 (German), publisher: Verlag Harri Deutsch, Frankfurt am Main and Thun) and was combined with the Gauß′ error propagation associated with the performed calculation for the normalization. The resulting standard deviation is herein referred to as “combined standard deviation”.
HL-60 cells were cultivated according to the protocol of the provider in RPMI 1640 medium (Fisherscientific, #11554526) containing 10% fetal bovine serum (Fisherscientific, #15517589).
A compound is considered as a growth inhibitor of HL-60 cells, if—at a reference concentration of 20 μM—the weighted arithmetic mean of the normalized fluorescence intensity values after addition of the corresponding combined standard deviation amounts to 0.9 or lower, in particular to 0.8 or lower, 0.7 or lower, 0.6 or lower, 0.4 or lower, and 0.2 or lower, relative to the overall basis level of 1.0. The overall basis level was calculated as the weighted arithmetic mean of all normalized values from the DMSO control measurements in analogy to the calculations performed for the test-compounds. The corresponding combined standard deviation for the DMSO values amounts to less than 1·10^−2.

[2] = test system: Notch signaling (hNotch1ΔE, human Notch1 receptor) in HeLa cells; assay: Notch reporter assay (luciferase luminescence readout in transfected HeLa cells); format: cell-based; conditions: Homo sapiens, 20 hours, relative to DMSO baseline level of 1.0, read-out: AVEw, weighted arithmetic mean of double-normalized Notch-reporter luciferase luminescence values (Activity Range)
Description: An according Notch-reporter assay, i.e. a luciferase-based luminescence readout, was used here to quantify the ability of the claimed small molecules to augment Notch signaling in a cellular system. For this purpose, HeLa cells, obtainable from the American Type Culture Collection (ATCC) under the accession number ATCC-CCL-2, were transiently transfected for 24 hours using FuGENE® HD (Promega, #E2311) as transfection reagent with expression vectors of a membrane-tethered form of the constitutively active intracellular domain of the human Notch1 receptor (hNotch1ΔE) to activate the signaling cascade (BPS Bioscience, human analogue to Notch Pathway Reporter Kit #60509 component C), a Firefly luciferase being expressed under the control of a Notch-responsive promoter to monitor Notch signaling (BPS Bioscience, Notch Pathway Reporter Kit #60509, CSL luciferase reporter vector from component A not premixed with Renilla luciferase vector), and a Renilla luciferase being constitutively expressed in a Notch signaling independent manner to include a measure for the cell number per sample (Promega, pRL-SV40, #E2231). HeLa cells were cultivated according to the protocol of the provider in DMEM medium (Fisherscientific, #11584456) containing 10% fetal bovine serum (Fisherscientific, #15517589). The transfection was carried out in a 100 mm-culture dish (StarLab, #CC7682-3394) with cells being properly attached to the plate at a cell confluency of 80-90% in a total volume of 7 mL culture medium. Per dish to be transfected, a transfection mix was prepared by adding to 238 μL Opti-MEM (Fisherscientific, #10149832) 40 μL of the hNotch1ΔE expression vector (100 ng/μL), 80 μL of the CSL luciferase reporter vector (40 ng/μL), 4 μL of the pRL-SV40-Renilla luciferase vector (10 ng/μL), and in the last step 18.1 μL of FuGENE® HD. After addition of FuGENE® HD the transfection mix was let stand for 15 min at room temperature and hereafter equally distributed into the culture dish. Subsequently, i.e. after 24 hours of transfection, the transfected cells (10.000 cells per well) were incubated with the test-compounds at a final concentration of 10 μM (diluted from 10 mM stock-solutions in DMSO to a final DMSO concentration of 0.1% v/v) or with the empty carrier DMSO at 0.1% v/v as control for 20 hours in 96-well plates suitable for luminescence readouts (CORNING, #3610). Hereafter, the cells were lysed with 30 μL per well of Passive Lysis Buffer (Promega, #E194A, component of Dual-Luciferase® Reporter Assay System, #E1910) and the Firefly as well as Renilla luciferase values were measured with a luminescence reader with applying 15 μL per well each of the corresponding enzyme substrates needed to create the luminescence signals (Promega, Dual-Luciferase® Reporter Assay System, #E1910).
The suitability of the assays for monitoring Notch signaling was controlled by additionally including a generally accepted commercial Notch inhibitor, i.e. DAPT, as negative control, as well as the reported Notch enhancer resveratrol (RES) as positive control (Pinchot et al., Cancer 2011, 117, 1386-1398; Truong et al., Ann. Surg. Oncol. 2011, 18, 1506-1511; Yu et al., Mol. Cancer Ther. 2013, 12, 1276-1287). Both control compounds were likewise tested at 10 μM.
Per single experiment the measurement was performed in six replicates per compound. For every compound, this experiment was repeated in three or more independent replicates. The values of the Notch-reporter luciferase were normalized by division through the corresponding individual Notch-independent Renilla values in order to eliminate the impact of variation in the absolute cell-numbers in between the samples. For every individual plate, a second normalization was performed against the equally weighted arithmetic mean (here abbreviated as AVE) of the six associated Renilla-normalized DMSO-control values within a single experiment in order to obtain the relative values to a baseline level of 1.0. […]

| Compound | activity at 20 µM [1] [%] | fold induction at 10 µM [2] |
| --- | --- | --- |
| COC(=O)c1ccc(Oc2ccc(C3CC4CCC3CC4)cc2)cc1 (racemic) [Compound 044, (±)-Methyl 4-(4-(bicyclo[2.2.2]octan-2-yl)phenoxy)benzoate] | 40 to 60 | 1.3 to 1.4 |
| CCOC(=O)c1ccc(Oc2ccc(C3CC4CCC3C4)cc2)cc1 (racemic) [Compound 066, ethyl 4-(4-((1S,4R)-bicyclo[2.2.1]heptan-2yl)phenoxy)benzoate] | 40 to 60 | 1.3 to 1.4 |
| CCOC(=O)c1ccc(Oc2ccc(C3CC4CCC3CC4)cc2)cc1 (racemic) [Compound 067, ethyl 4-(4-((1s,4s)-bicyclo[2.2.2]octan-2-yl)phenoxy)benzoate] | 60 to 70 | 1.4 to 1.7 |
| CCOC(=O)c1ccc(Oc2ccc(C3CC4CCC3C4)cc2)nc1 (racemic) [Compound 133, ethyl 6-(4-((1S,4R)-bicyclo[2.2.1]heptan-2-yl)phenoxy)nicotinate] | 40 to 60 | 1.2 to 1.3 |
| CCOC(=O)c1ccc(Oc2ccc(C3CC4CCC3CC4)cc2)nc1 (racemic) [Compound 134, ethyl 6-(4-((1s,4s)-bicyclo[2.2.2]octan-2-yl)phenoxy)nicotinate] | 70 to 80 | 1.4 to 1.7 |
| CCC(C)(C)c1ccc(Oc2ccc(C(=O)OC)cc2)cc1 [Compound 030, Methyl 4-(4-(tert-Pentyl)phenoxy)benzoate] | 80 to 90 | ≥ 2 |
| COC(=O)c1ccc(Oc2ccc(C3CCCCC3)cc2)cc1 [Compound 041, methyl 4-(4-(cyclohexyl)phenoxy)benzoate] | 70 to 80 | 1.4 to 1.7 |
| COC(=O)c1ccc(Oc2ccc(C3C[C@@H]4CC[C@H]3C4)cc2)cc1 (stereo partly drawn) [Compound 043, methyl 4-(4-((1S,4R)-bicyclo[2.2.1]heptan-2-yl)phenoxy)benzoate] | 40 to 60 | 1.7 to 2 |
| COC(=O)c1ccc(Oc2ccc(C34CC5CC(CC(C5)C3)C4)cc2)cc1 [Compound 045, methyl 4-(4-((3r,5r,7r)-adamantan-1-yl)phenoxy)benzoate] | 40 to 60 | 1.7 to 2 |
| CCCCc1ccc(Oc2ccc(C(=O)O)cn2)cc1 [Compound 072, 6-(4-butylphenoxy)nicotinic acid] | 80 to 90 | 1.4 to 1.7 |
| CCCCCc1ccc(Oc2ccc(C(=O)O)cn2)cc1 [Compound 073, 6-(4-pentylphenoxy)nicotinic acid] | 80 to 90 | 1.4 to 1.7 |
| CC(C)c1ccc(Oc2ccc(C(=O)O)cn2)cc1 [Compound 075, 6-(4-isopropylphenoxy)nicotinic acid] | 80 to 90 | 1.4 to 1.7 |
| CCc1ccc(Oc2ccc(C(=O)OC)cn2)cc1 [Compound 092, methyl 6-(4-ethylphenoxy)nicotinate] | 80 to 90 | 1.2 to 1.3 |
| Cc1ccc(Oc2ccc(C(=O)N(C)C)cc2)cc1 [Compound 215, N,N-dimethyl-4-(p-tolyloxy)benzamide] | 70 to 80 | 1.1 to 1.2 |
| CCc1ccc(Oc2ccc(C(=O)N(C)C)cc2)cc1 [Compound 216, 4-(4-ethylphenoxy)-N,N-dimethylbenzamide] | 0 to 20 | 1.4 to 1.7 |
| CCCc1ccc(Oc2ccc(C(=O)N(C)C)cc2)cc1 [Compound 217, N,N-dimethyl-4-(4-propylphenoxy)benzamide] | 60 to 70 | 1.2 to 1.3 |
| CC(C)c1ccc(Oc2ccc(C(=O)N(C)C)cc2)cc1 [Compound 221, 4-(4-isopropylphenoxy)-N,N-dimethylbenzamide] | 40 to 60 | 1.1 to 1.2 |
| CN(C)C(=O)c1ccc(Oc2ccc(C(C)(C)C)cc2)cc1 [Compound 222, 4-(4-(tert-Butyl)phenoxy)-N,N-dimethylbenzamide] | 60 to 70 | 1.2 to 1.3 |
| Cc1ccc(Oc2ccc(C(=O)N(C)C)cn2)cc1 [Compound 316, N,N-dimethyl-6-(p-tolyloxy)nicotinamide] | 80 to 90 | 1.2 to 1.3 |
| CCc1ccc(Oc2ccc(C(=O)N(C)C)cn2)cc1 [Compound 317, 6-(4-ethylphenoxy)-N,N-dimethylnicotinamide] | 80 to 90 | 1.4 to 1.7 |
| CCCc1ccc(Oc2ccc(C(=O)N(C)C)cn2)cc1 [Compound 318, N,N-dimethyl-6-(4-propylphenoxy)nicotinamide] | 40 to 60 | 1.7 to 2 |
| CCCCc1ccc(Oc2ccc(C(=O)N(C)C)cn2)cc1 [Compound 319, 6-(4-butylphenoxy)-N,N-dimethylnicotinamide] | 40 to 60 | 1.3 to 1.4 |
| CC(C)c1ccc(Oc2ccc(C(=O)N(C)C)cn2)cc1 [Compound 322, 6-(4-Isopropylphenoxy)-N,N-dimethylnicotinamide] | 70 to 80 | ≥ 2 |
